This assay concerns the target T1, Human PDE2A3 enzyme (Homo sapiens, UniProt O00408).
T1 construct: generated from Sf9 cells transfected with the full-length gene; His-tag; made in house; host or cells: Sf9 insect cells
In words: PDE2A3 enzyme inhibition, SPA (Scintillation Proximity Assay). The format is biochemical. Particulars: 1 μM compound, substrate [3H] cGMP, read-out: Inhibition Rate (%) (1 μM). The procedure: Human PDE2A3 enzyme was generated from Sf9 cells transfected with the full-length gene. The extracted enzyme from Sf9 cells was purified by His-tag affinity column and gel filtration. The enzyme was stored at −70° C. until use. PDE activity was measured using a SPA (Scintillation Proximity Assay) (GE Healthcare). To evaluate the inhibitory activity, 10 μl of serial diluted compounds were incubated with 20 μl of PDE enzyme in assay buffer (50 mM HEPES-NaOH, 8.3 mM MgCl2, 1.7 mM EGTA, 0.1% BSA (pH 7.4)) for 30 min. at room temperature. Final concentration of DMSO in the assay was 1 percent as compounds were tested in duplicate in 96-well half-area plates (Corning) or 384-well OptiPlate (PerkinElmer). To start the reaction, 10 μl of substrate [^3H] cGMP (77 nM, PerkinElmer) was added for a final assay volume of 40 μl. After 60 min incubation at room temperature, 20 μl of 20 mg/ml yttrium SPA beads containing Zinc sulphate was added to terminate the PDE reaction. […] Inhibition rate was calculated on the basis of 0% control wells with enzyme and DMSO, and 100% control wells without enzyme.

SMILES strings stand for the structures.

T1 sequence (O00408 whole entry): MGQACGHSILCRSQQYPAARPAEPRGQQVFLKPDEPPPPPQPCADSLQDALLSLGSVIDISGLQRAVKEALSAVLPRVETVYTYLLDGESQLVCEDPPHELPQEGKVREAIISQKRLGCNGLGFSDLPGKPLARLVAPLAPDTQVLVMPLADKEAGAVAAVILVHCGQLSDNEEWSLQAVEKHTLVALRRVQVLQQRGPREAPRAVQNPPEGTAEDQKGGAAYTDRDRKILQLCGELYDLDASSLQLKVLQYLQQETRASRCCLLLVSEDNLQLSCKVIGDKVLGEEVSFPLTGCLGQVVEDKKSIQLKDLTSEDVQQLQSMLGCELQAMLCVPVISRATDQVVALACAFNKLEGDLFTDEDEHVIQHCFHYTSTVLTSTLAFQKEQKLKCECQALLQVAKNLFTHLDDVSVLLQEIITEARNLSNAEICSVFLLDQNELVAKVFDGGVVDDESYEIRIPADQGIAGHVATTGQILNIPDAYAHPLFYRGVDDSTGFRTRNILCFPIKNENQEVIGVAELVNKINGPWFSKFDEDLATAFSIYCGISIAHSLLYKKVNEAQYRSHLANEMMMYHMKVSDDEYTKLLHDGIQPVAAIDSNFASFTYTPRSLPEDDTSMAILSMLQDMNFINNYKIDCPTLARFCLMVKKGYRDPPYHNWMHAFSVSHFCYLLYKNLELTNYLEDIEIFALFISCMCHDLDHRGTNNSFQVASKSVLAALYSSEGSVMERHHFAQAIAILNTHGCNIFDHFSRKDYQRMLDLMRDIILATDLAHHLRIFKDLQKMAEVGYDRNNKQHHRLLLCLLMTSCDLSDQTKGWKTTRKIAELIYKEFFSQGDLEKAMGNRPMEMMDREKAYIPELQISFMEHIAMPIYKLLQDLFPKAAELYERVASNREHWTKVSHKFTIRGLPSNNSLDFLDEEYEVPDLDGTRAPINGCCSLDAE

The term inhibition denotes the share of the control response that was lost under treatment. In the case of `CCC(NC(=O)N1CC(=O)Nc2ccc(OC)nc21)c1ccc(OC(F)(F)F)cc1` (stereo not drawn) [Example 52, 6-methoxy-2-oxo-N-(1-(4-(trifluoromethoxy)phenyl)propyl)-2,3-dihydropyrido[2,3-b]pyrazine-4(1H)-carboxamide], the inhibition at 1 µM was found to be 93%. The value for `CC(C)(O)C(NC(=O)N1CC(=O)Nc2cc(C3CC3)cnc21)c1ccc(OC(F)(F)F)c(F)c1` (stereo not drawn) [Example 76, Optically active 7-cyclopropyl-N-(1-(3-fluoro-4-(trifluoromethoxy)phenyl)-2-hydroxy-2-methylpropyl)-2-oxo-2,3-dihydropyrido[2,3-b]pyrazine-4(1H)-carboxamide] was 100%.

As for `COC[C@@H](NC(=O)N1CC(=O)Nc2ccc(-n3cccn3)nc21)c1ccc(OC(F)(F)F)c(F)c1` [Example 117, N-((1S)-1-(3-fluoro-4-(trifluoromethoxy)phenyl)-2-methoxyethyl)-2-oxo-6-(1H-pyrazol-1-yl)-2,3-dihydropyrido[2,3-b]pyrazine-4(1H)-carboxamide], the inhibition at 1 µM turned out to be 99%. On to `COC[C@@H](NC(=O)N1CC(=O)Nc2ccc(-n3cccn3)nc21)c1ccc(OC(F)(F)F)cc1` [Example 130, N-((1S)-2-methoxy-1-(4-(trifluoromethoxy)phenyl)ethyl)-2-oxo-6-(1H-pyrazol-1-yl)-2,3-dihydropyrido[2,3-b]pyrazine-4(1H)-carboxamide], for which the inhibition at 1 µM is 99%. The value for `COCC(NC(=O)N1CC(=O)Nc2cc(C)cnc21)c1ccc(-n2cccn2)cc1` (stereo not drawn) [Example 134, N-(2-methoxy-1-(4-(H-pyrazol-1-yl)phenyl)ethyl)-7-methyl-2-oxo-2,3-dihydropyrido[2,3-b]pyrazine-4(1H)-carboxamide] was 97%. As to `COCC(NC(=O)N1CC(=O)Nc2cc(C)cnc21)c1ccc(-n2cccn2)c(F)c1` (stereo not drawn) [Example 143, N-(1-(3-fluoro-4-(1H-pyrazol-1-yl)phenyl)-2-methoxyethyl)-7-methyl-2-oxo-2,3-dihydropyrido[2,3-b]pyrazine-4(1H)-carboxamide], the inhibition at 1 µM was 98%. The value for `Cc1cnc2c(c1)NC(=O)CN2C(=O)NC1(c2ccc(OC(F)(F)F)cc2)CC1` [Example 152, 7-methyl-2-oxo-N-(1-(4-(trifluoromethoxy)phenyl)cyclopropyl)-2,3-dihydropyrido[2,3-b]pyrazine-4(1H)-carboxamide] was 97%; that for `CCC(NC(=O)N1CC(=O)Nc2cc(C)cnc21)c1ccc(-n2cccn2)s1` (stereo not drawn) [Example 162, 7-methyl-2-oxo-N-(1-(5-(1H-pyrazol-1-yl)-2-thienyl)propyl)-2,3-dihydropyrido[2,3-b]pyrazine-4(1H)-carboxamide] was 97%. The value for `Cc1cnc2c(c1)NC(=O)CN2C(=O)NC(c1ccc(OC(F)(F)F)cc1)C1CCCO1` (stereo not drawn) [Example 200, 7-methyl-2-oxo-N-(tetrahydrofuran-2-yl(4-(trifluoromethoxy)phenyl)methyl)-2,3-dihydropyrido[2,3-b]pyrazine-4(1H)-carboxamide] was 100%; that for `COCC(NC(=O)N1CC(=O)Nc2ccc(-c3ccn(C)n3)nc21)c1ccc(OC(F)(F)F)cc1` (stereo not drawn) [Example 222, N-(2-methoxy-1-(4-(trifluoromethoxy)phenyl)ethyl)-6-(1-methyl-1H-pyrazol-3-yl)-2-oxo-2,3-dihydropyrido[2,3-b]pyrazine-4(1H)-carboxamide] was 99%; that for `COc1cc2c(nc1C)N(C(=O)N[C@@H](c1ccc(OC(F)(F)F)cc1)C(C)(C)O)CC(=O)N2` [Example 253, N-((1S)-2-hydroxy-2-methyl-1-(4-(trifluoromethoxy)phenyl)propyl)-7-methoxy-6-methyl-2-oxo-2,3-dihydropyrido[2,3-b]pyrazine-4(1H)-carboxamide] was 100%.

With `COc1nc2c(cc1C)NC(=O)CN2C(=O)N[C@@H](c1ccc(OC(F)(F)F)cc1)C(C)(C)O` [Example 261, N-((1S)-2-hydroxy-2-methyl-1-(4-(trifluoromethoxy)phenyl)propyl)-6-methoxy-7-methyl-2-oxo-2,3-dihydropyrido[2,3-b]pyrazine-4(1H)-carboxamide], the inhibition at 1 µM turned out to be 100%. The value for `CC(C)(O)C(NC(=O)N1CC(=O)Nc2cc(C3CC3)cnc21)c1ccc(C(F)(F)F)cc1` (stereo not drawn) [Example 266, Optically active 7-cyclopropyl-N-(2-hydroxy-2-methyl-1-(4-(trifluoromethyl)phenyl)propyl)-2-oxo-2,3-dihydropyrido[2,3-b]pyrazine-4(1H)-carboxamide] was 100%. The value for `COc1cnc2c(c1)NC(=O)CN2C(=O)NC(c1ccc(C(F)(F)F)cc1)C(C)(C)O` (stereo not drawn) [Example 268, Optically active N-(2-hydroxy-2-methyl-1-(4-(trifluoromethyl)phenyl)propyl)-7-methoxy-2-oxo-2,3-dihydropyrido[2,3-b]pyrazine-4(1H)-carboxamide] was 99%; that for `Cc1cnc2c(c1)NC(=O)CN2C(=O)NC(c1ccc(OC(F)(F)F)c(F)c1)C(C)(C)O` (stereo not drawn) [Example 273, Optically active N-(1-(3-fluoro-4-(trifluoromethoxy)phenyl)-2-hydroxy-2-methylpropyl)-7-methyl-2-oxo-2,3-dihydropyrido[2,3-b]pyrazine-4(1H)-carboxamide] was 98%.

Values taken from US9469637B2, “Nitrogenated heterocyclic compound” (Takeda Pharmaceutical Company Limited, priority 2012, dated 2016).
